The nature of this data set: in vitro. Conditions: human, hela cells, % viability.

Each structure is given as a SMILES string. Peptide text beside a SMILES is read from it. * marks the point of attachment. Bz = O=C(c1ccccc1)*

In general, viability refers to a read-out of living cells in per cent, often relative to untreated cells. Regarding `COc1ccc(C(=O)N2CCC3(CCCN(CC(=O)Nc4ncccn4)C3)C2)cc1OC` (stereo not drawn) [CBK132860], the viability at 28.5 h, 10 µM amounted to 105%.
To `O=C(NC(Cc1ccccc1)C(=O)N1CCCC1C(=O)O)c1ccccc1` (stereo not drawn) [CBK264058] (Bz-Phe-Pro-OH; configuration not given here) belongs 90.8%; to `C=CCn1c(=O)c(C(=O)NCCCO)c(O)c2ccccc21` [CBK262481], 83.9%; to `Cc1cccnc1C(c1ccccc1)N(C)C(=O)C1CCN(C(=O)OCc2ccccc2)CC1` (stereo not drawn) [CBK060522], 93.9%.
In the case of `CN1CCN(C(=O)c2ccc(-c3ccccc3)nc2N(C)C)CC1` [CBK106115], the viability at 28.5 h, 10 µM was found to be 84.4%.
With `CCn1cc(CCC(=O)NC2CCCOC2)c2ccccc21` (stereo not drawn) [CBK283256], the viability at 28.5 h, 10 µM was found to be 88.7%.
To `O=C(Nc1ccccc1Cl)N1CCN(c2ccc(F)cc2)CC1` [CBK117849] belongs 95.7%; to `O=C(NCCO)c1cccc(-c2cnc3[nH]c(=O)n(Cc4ccccn4)c3n2)c1` [CBK065034], 96.5%; to `COc1ccc(-c2nnc3ccc(SCc4ccccn4)nn23)cc1OC` [CBK287528], 97.4%.
Under `CC(=O)N1CCC[C@@H](N)[C@@H]1c1ccccc1F` [CBK281562] stands 111%.
On to `c1ccc(-c2cc(-c3ccccc3)n3nc(Cc4nc5nc(-c6ccccc6)cc(-c6ccccc6)n5n4)nc3n2)cc1` [CBK261017], for which the viability at 28.5 h, 10 µM came to 93.1%.
Take `CCOc1cccc(CNC(=O)N2CCC(Cc3cnn(C)c3)C2)c1` (stereo not drawn) [CBK305280]: the viability at 28.5 h, 10 µM amounted to 115%.
Under `Cc1ccc(C#N)cc1S(=O)(=O)NC1CC(=O)c2ccccc21` (stereo not drawn) [CBK304030] stands 117%; under `O=C(NCC1CCCO1)c1sc2ccccc2c1Cl` (stereo not drawn) [CBK058604], 93.3%; under `COCC(=O)N1CCC(c2cc(-c3ccc(F)cc3)n[nH]2)C1` (stereo not drawn) [CBK284600], 101%.
On to `Cc1cc(CNC(=O)[C@@H]2Cc3cn(C)c4cccc(c34)[C@H](CC(C)C)N2)no1` [CBK289420], for which the viability at 28.5 h, 10 µM amounted to 104%.
To `O=C(Cn1ncn2c(cc3ccsc32)c1=O)N1CCCCCC1` [CBK284202] belongs 81.7%; to `CCCCN(C=O)c1c(CC)nc2c(OCc3ccccc3C)cccn12` [CBK147639], 92.2%; to `O=C(NCCN1CCOCC1)c1nnc(C(=O)Nc2cccc(Cl)c2)s1` [CBK294405], 93.9%.
Under `Cc1nc(C)n(CCNC(=O)C(C)Cc2cccs2)n1` (stereo not drawn) [CBK282067] stands 79.7%.
To `CCC1CCCCN1C(=O)c1ccccc1C(=O)OC` (stereo not drawn) [CBK083196] belongs 92.4%; to `CCOCCCC(=O)N1CCN(Cc2nnc3n2CCCCC3)CC1` [CBK305298], 90.9%; to `CC(=O)NCC1CC(c2ccc(OC(C)=O)c(Cl)n2)=NO1` (stereo not drawn) [CBK010396], 88.8%.
On to `Cc1ccc(CN(CCCn2ccnc2)Cc2nccn2C)s1` [CBK283137], for which the viability at 28.5 h, 10 µM was 91.8%.
With `O=C(O)CCN1C(=O)COc2ccc(Cl)cc21` [CBK287192], the viability at 28.5 h, 10 µM was 107%.
Under `CO[C@@H]1CO[C@H]2[C@@H]1OC[C@@H]2Nc1nccc(-c2cccc(C#N)c2)n1` [CBK289532] stands 79.8%.
To `CCc1ccccc1NC(=S)Nc1cccc(C)n1` [CBK288415] belongs 103%.
For the molecule `CC1(C)CCCCC1CC(=O)NS(=O)(=O)c1cccc(-c2nnco2)c1` (stereo not drawn) [CBK306477], the viability at 28.5 h, 10 µM worked out at 79.3%.
To `COc1ccc([C@@]23CC[C@@H](NC(=O)Nc4cc(C)c(C)cc4[N+](=O)[O-])C[C@@H]2N(C)CC3)cc1OC` [CBK036478T] belongs 67.8%; to `Cc1ccc(C(=O)O)cc1NC(=O)C1CCCCC1C(=O)O` (stereo not drawn) [CBK263679], 93.5%.
To `Cc1ccc2[nH]c(-c3cccc(NC(=O)c4ccc(-n5cnnc5)cc4)c3)nc2c1` [CBK285839] belongs 94.1%; to `C=C(C)Cn1c(-c2ccc(N)cc2)nc2ccccc21` [CBK287581], 89.2%; to `CS(=O)(=O)N[C@H]1C[C@H]2C(=O)Nc3cc(Cl)ccc3C(=O)N2C1` [CBK289363], 89%.
As to `CC1CCN(Cc2ccc(-c3nnn(CC(=O)NCc4ccc(C(F)(F)F)cn4)n3)cc2)CC1` [CBK149722T], the viability at 28.5 h, 10 µM worked out at 104%.
With `c1ccc(-c2nc3cc4ccccc4cc3[nH]2)nc1` [CBK000130], the viability at 28.5 h, 10 µM was found to be 82.5%.
To `CCOc1cc(NC2CCN(C(=O)C3(CCOC)CC3)CC2)ncn1` [CBK304434] belongs 98.2%; to `OCc1ccccc1-c1cncc(NCC2CCOCC2)n1` [CBK037309], 113%.
Under `Cc1nc[nH]c1CN(Cc1ccccc1)C1CC(C)(C)NC(C)(C)C1` [CBK283178] stands 92%.
Regarding `CN(C)C(C)(C)COc1ncccc1OCCO` [CBK042184], the viability at 28.5 h, 10 µM was found to be 112%.
Under `COC(=O)[C@@H]1CN(C(=O)c2cccs2)CCN1C(=O)c1cccnc1` [CBK289610] stands 87%.
Regarding `CN(C1=NS(=O)(=O)c2ccccc21)c1ccc(OC(=O)C2CC(=O)N(c3ccccc3)C2)cc1` (stereo not drawn) [CBK263849], the viability at 28.5 h, 10 µM turned out to be 87%.
With `Cc1nnc(CN(C)C2CCN(CCc3cccs3)C2)n1C` (stereo not drawn) [CBK305126], the viability at 28.5 h, 10 µM stood at 97.8%.
In the case of `COc1ccc(-c2cc(Nc3ccc(N(C)C)cc3)ncn2)cc1OC` [CBK036969], the viability at 28.5 h, 10 µM came to 108%.
To `O=C(CSc1nc2ccccc2c2nc3ccccc3n12)Nc1ccc(Cl)cc1F` [CBK268098] belongs 115%; to `O=C(Nc1cccc2c(NC(=O)C3CC3c3ccccc3)cccc12)C1CC1c1ccccc1` (stereo not drawn) [CBK260911], 99.1%.
On to `CC1CCC(N(Cc2nnc(C3CCC3)n2C)CC2CCCO2)CC1` (stereo not drawn) [CBK305540], for which the viability at 28.5 h, 10 µM worked out at 97.3%.
Take `O=C(O)C1=CC(c2ccccc2)=NS(=O)(=O)N1` [CBK286828]: the viability at 28.5 h, 10 µM amounted to 108%.
Under `COCc1nnc(Sc2nc3ccccc3nc2NC(C)C)s1` [CBK115253] stands 96.5%.
For the molecule `CC(=O)Nc1ccc(/C=N/c2ccccc2)cc1` [CBK012258], the viability at 28.5 h, 10 µM turned out to be 96.4%.
To `CN1C(=O)CC2(C1=O)C(=O)N(C)c1ccc(F)cc12` (stereo not drawn) [CBK075290] belongs 105%; to `COc1ccc(-c2ncc(Oc3cccc(NC(C)=O)c3)nc2N)c(OC)c1` [CBK145087], 113%; to `COc1ccc2cc(C(=O)N(CCO)Cc3ccc(C)s3)n(C)c2c1` [CBK306831], 116%.
To `O=C(Cc1noc2ccccc12)Nc1ccc(N2CCCS2(=O)=O)cc1` [CBK304521] belongs 107%.
To `CC(C)c1nnc(NC(=O)CC2CCN(C(=O)C3(c4ccccc4)CCCC3)CC2)s1` [CBK285905] belongs 94.9%.
As for `C=CCn1oc(=O)n(-c2ccc(OC)cc2)c1=O` [CBK122773], the viability at 28.5 h, 10 µM stood at 89.4%.
Under `CC(=O)N1CCN(CCCC(c2ccc(F)cc2)c2ccc(F)cc2)CC1` [CBK024944C] stands 101%; under `CC(C)NC(=O)NC[C@H]1C[C@@H]2CCN1C[C@@H]2c1cc(C2CCCC2)nn1C` [CBK288744], 96.5%.

These data come from PMC12040169 (PLOS Biology, 2025).
